Experimental findings from patent publication US20150152083A1, “Compounds and Compositions for Modulating EGFR Activity” (IRM LLC, A Delaware Limited Liability Company, priority 2012, published 2015) are described below.

Some results are limits rather than exact numbers.

The target in assay [1] is T1, EGFR(L858R/T790M) (Homo sapiens, UniProt P00533, L858R/T790M). The experiment in a line: EGFR biochemical assay (HTRF), IC50 determination. More on the design: purchased from Carna (GST-a.a. 669-1210); purchased Carna. As to conditions: 10 μM ATP. The procedure:
All EGFR biochemical assays were carried out by HTRF method. The EGFR(L858RT790M) enzyme were purchased from Carna (GST-a.a. 669-1210). The substrate peptide Biotin-TK-peptide was purchased from Cis-Bio. The reaction mixtures contained 1 μM peptide substrate, 10 μM ATP, and 0.036 nM EGFR(L858RT790M) in the reaction buffer (50 mM HEPES pH 7.1, 10 mM MgCl2, 0.01% BSA, 1 mM TCEP and 0.1 mM Na3VO4) at a final volume of 10 μL. All reactions were carried out at room temperature in white ProxiPlate™ 384-well Plus plates (PerkinElmer) and were quenched with 5 μL of 0.2 M EDTA at 60 min Five μL of the detection reagents (2.5 ng PT66K and 0.05 μg SAXL per well) were added, the plates were incubated at room temperature for 1 h and then read in EnVision reader. […] For no-preincubation condition, the compounds were added to the assay solution containing ATP and peptide, and the reaction was initiated by addition of enzyme. For pre-incubation conditions, the compounds were added to the assay solution containing enzyme and peptide, and pre-incubated at room temperature for desired period of time, then the reaction was initiated by addition of ATP.
Target sequence in this assay (P00533 669-1210 T790M/L858R): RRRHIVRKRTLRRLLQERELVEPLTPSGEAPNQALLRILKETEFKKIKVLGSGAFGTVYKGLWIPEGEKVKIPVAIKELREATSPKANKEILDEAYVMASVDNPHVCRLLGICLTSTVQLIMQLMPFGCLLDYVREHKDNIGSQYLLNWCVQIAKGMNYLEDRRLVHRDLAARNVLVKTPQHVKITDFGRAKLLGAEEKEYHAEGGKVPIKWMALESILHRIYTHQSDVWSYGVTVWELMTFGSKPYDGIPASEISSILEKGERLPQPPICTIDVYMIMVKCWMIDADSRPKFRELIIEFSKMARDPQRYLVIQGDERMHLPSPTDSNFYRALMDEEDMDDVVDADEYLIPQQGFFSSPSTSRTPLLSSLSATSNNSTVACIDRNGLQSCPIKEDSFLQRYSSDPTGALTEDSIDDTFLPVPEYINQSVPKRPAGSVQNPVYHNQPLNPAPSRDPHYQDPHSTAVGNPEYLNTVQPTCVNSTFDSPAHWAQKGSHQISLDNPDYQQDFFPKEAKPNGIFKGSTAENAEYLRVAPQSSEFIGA

The target of assay [2] is T1, EGFR(L858R/T790M). The experiment in a line: EGFR target modulation in engineered NIH3T3 cell lines (phospho-EGFR AlphaLISA). It is filed as cell-based. More on the design: host or cells: NIH3T3. Conditions: NIH3T3 cells expressing human EGFR L858R/T790M; 3 hours compound. The procedure:
(§1) EGFR Target Modulation in Engineered NIH3T3 Cell Lines
(§2) NIH3T3 cell lines expressing human EGFR (WT, L858R, and L858RT790M) (obtained from Matthew Meyerson's Lab at DFCI) were maintained in 10% FBS/DMEM supplemented with 100 μg/ml Penicillin/Streptomycin (Hyclone #SV30010) and 2 μg/ml Puromycin. The cells were harvested with 0.05% Trypsin/EDTA (Hyclone #SH30236.01), re-suspended in 5% FBS/DMEM Pen/Strep without Puromycin and plated at 9,000 cells per well in 50 μl of media in a 384-well black plate with clear bottoms (Greiner #789068G). The cells were allowed to incubate overnight in a 37° C., 5% CO2 humidified tissue culture incubator. A 12-point test compound curve was prepared by serial diluting a 10 μM stock 1:3 in DMSO in a 384-well compound plate (Greiner #789201L). The serial diluted compounds were transferred to the plate containing cells by using a 50 nl Pin Head device (Perkin Elmer) and the cells were placed back in the incubator for 3 hours. Only the EGFR WT-expressing cells were induced with 50 ng/ml EGF (Preprotech #AF-100-15) for 5 minutes before lysis. The media was removed and cells were lysed in 25 μl of Lysis buffer containing protease and phosphatase inhibitors (1% Triton X-100, 20 mM Tris, pH 7.5, 1 mM EDTA, 1 mM EGTA, 150 mM NaCl, 1× complete cocktail inhibitor (Roche #11 697 498 001), 1× Phosphatase Inhibitor Cocktail Set II and Set III (Sigma #P5726 and #P0044)). The plates were shaken at 4° C. for 5 minutes with foil top at maximum speed. An aliquot of 5 μl from each well was transferred to ProxiPlate™ 384-well Plus plates (PE #6008289). The plates were sealed with a foil top and frozen at −80° C. and thawed when needed.
(§3) The frozen aliquots were thawed and briefly centrifuged. All antibodies and beads were diluted in 1× AlphaLISA HiBlock Buffer (PE #AL004C). Biotinylated anti-phospho-EGFR (Y1068) (Cell Signaling #4031) was incubated with the lysate for 1 hour at room temperature at 1 nM final concentration. Goat anti-total EGFR (R&D Systems #AF231) was added and allowed to equilibrate for 1 hour at room temperature at 1 nM final concentration. Then, 10 μl of mixed beads (AlphaScreen Streptavidin Donor Beads (PE #6760002S) and AlphaLISA anti-goat IgG Acceptor Beads (PE #AL107C)) was equilibrated for 1.5 hours before reading on EnVision plate reader using the built-in settings for AlphaScreen.
(§4) Cells untreated (L858R and L858RT790M) or EGF-induced (WT) were set to 100% maximum response. For a negative control, 10 μM HKI-272 was used to normalize data to 0% of maximum response. With these parameters, the IC50's for each compound in each cell line was calculated using non-linear curve fitting analysis.
Target sequence in this assay (P00533 25-1210 T790M/L858R): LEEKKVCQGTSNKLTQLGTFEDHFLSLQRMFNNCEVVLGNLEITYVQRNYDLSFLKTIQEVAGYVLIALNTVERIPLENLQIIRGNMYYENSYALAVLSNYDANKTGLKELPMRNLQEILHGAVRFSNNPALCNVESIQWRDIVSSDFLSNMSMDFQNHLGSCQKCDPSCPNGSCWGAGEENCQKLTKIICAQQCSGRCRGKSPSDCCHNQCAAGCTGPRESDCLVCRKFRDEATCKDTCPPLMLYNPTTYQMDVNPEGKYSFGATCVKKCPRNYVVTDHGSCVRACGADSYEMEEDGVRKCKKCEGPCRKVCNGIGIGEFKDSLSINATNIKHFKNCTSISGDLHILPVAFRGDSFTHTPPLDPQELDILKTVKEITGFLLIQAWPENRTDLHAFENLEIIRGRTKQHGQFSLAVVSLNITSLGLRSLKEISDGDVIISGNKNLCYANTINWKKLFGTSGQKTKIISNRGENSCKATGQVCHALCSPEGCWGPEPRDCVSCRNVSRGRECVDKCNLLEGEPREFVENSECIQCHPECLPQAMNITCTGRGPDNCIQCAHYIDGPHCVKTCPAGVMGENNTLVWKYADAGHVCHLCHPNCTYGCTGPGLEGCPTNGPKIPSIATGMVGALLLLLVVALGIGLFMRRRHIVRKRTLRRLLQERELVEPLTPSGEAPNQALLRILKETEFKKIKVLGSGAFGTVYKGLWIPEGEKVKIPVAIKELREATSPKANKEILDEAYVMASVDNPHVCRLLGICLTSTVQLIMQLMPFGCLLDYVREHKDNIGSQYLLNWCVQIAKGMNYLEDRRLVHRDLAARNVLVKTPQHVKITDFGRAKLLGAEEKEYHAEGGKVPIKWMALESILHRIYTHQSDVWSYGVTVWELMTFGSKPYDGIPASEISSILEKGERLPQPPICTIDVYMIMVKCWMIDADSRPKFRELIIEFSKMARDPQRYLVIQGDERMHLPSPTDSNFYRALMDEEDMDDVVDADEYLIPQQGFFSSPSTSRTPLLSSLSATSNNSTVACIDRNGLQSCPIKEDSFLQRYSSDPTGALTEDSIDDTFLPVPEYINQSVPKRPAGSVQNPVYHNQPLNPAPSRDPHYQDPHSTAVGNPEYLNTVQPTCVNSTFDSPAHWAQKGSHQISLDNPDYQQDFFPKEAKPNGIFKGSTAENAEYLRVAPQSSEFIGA
On the technique in general: Alpha assays give light when donor and acceptor beads are brought close together.

The next assay deals with T2, EGFR (L858R) (Homo sapiens, UniProt P00533, L858R).
T2 construct: host or cells: NIH3T3
Described as above. Conditions: NIH3T3 cells expressing human EGFR L858R; 3 hours compound. The format is cell-based. The procedure:
as §1, §2, §3, §4

For a further assay, the target named is T3, EGFR (WT) (Homo sapiens, UniProt P00533).
T3 construct: host or cells: NIH3T3
Described as above. The format is cell-based. Conditions: NIH3T3 cells expressing human EGFR WT; 3 hours compound; induced with 50 ng/ml EGF. The procedure:
as §1, §2, §3, §4

Setting [3] is: EGFR (L858R/T790M) IC50 (μM) 90 min pre-incubation, 90 min pre-incubation.
Setting [4] is: no pre-incubation, read-out: EGFR (L858R/T790M) IC50 (μM) No pre-incubation.

T2 sequence (P00533 25-1210 L858R): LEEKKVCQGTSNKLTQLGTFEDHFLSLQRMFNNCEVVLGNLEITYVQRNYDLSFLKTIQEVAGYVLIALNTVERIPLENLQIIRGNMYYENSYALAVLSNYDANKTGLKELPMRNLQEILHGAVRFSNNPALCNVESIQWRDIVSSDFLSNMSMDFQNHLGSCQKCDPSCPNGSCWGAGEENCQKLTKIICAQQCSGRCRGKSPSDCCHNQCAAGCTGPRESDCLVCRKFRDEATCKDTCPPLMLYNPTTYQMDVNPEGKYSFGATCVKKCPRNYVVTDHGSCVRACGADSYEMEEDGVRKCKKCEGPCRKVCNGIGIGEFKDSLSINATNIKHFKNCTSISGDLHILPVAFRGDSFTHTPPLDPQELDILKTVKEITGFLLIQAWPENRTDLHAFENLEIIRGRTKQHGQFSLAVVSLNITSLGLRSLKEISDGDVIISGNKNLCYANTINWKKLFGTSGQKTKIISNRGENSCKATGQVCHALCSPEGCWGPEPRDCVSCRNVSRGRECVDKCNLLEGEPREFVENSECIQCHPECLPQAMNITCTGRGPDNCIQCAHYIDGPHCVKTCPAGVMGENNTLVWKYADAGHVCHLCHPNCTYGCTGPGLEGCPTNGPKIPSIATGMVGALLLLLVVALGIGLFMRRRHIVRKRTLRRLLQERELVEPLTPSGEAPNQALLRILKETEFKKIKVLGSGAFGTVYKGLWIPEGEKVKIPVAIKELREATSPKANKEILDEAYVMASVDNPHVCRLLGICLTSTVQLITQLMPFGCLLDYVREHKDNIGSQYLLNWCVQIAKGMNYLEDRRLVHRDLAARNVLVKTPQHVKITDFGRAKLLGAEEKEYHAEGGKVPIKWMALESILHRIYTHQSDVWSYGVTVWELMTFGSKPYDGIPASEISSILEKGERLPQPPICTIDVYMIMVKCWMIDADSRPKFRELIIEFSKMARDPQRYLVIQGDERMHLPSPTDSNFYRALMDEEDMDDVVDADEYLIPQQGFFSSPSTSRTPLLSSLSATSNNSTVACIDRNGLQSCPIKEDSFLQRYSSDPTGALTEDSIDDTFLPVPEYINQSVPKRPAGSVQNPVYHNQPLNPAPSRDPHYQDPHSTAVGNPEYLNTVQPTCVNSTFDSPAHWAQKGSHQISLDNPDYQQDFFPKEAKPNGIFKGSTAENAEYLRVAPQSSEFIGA
T3 sequence (P00533 25-1210): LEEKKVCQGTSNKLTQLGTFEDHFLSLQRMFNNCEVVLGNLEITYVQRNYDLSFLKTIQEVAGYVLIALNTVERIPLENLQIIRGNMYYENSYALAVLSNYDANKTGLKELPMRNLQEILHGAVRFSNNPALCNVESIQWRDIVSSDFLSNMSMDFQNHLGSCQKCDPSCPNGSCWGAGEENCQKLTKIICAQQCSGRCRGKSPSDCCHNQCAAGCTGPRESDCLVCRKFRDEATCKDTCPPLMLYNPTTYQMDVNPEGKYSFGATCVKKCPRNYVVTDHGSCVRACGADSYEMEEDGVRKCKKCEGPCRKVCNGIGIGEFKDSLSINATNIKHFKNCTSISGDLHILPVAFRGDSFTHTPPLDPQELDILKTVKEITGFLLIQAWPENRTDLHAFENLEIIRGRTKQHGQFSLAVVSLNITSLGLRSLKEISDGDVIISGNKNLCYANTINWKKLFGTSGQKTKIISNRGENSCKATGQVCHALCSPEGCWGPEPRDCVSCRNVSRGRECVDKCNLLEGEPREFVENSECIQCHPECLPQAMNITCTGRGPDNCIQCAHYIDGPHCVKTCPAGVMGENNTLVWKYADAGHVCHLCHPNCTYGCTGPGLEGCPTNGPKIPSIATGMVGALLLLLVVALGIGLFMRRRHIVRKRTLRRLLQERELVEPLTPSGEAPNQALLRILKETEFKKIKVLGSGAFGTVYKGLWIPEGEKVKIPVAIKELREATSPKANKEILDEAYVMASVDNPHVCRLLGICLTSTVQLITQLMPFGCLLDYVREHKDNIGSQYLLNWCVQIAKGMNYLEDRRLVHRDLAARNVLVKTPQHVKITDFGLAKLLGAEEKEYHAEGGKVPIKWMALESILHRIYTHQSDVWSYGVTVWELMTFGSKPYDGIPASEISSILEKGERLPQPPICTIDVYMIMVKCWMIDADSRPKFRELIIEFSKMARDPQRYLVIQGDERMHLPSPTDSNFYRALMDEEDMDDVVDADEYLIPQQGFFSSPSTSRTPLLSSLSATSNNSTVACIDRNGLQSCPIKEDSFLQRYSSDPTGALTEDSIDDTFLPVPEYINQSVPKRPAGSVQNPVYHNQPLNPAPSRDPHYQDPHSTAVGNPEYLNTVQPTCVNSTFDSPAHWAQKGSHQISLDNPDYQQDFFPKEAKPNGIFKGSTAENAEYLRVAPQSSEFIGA

`C=CC(=O)Nc1cccc(-n2c(NC(=O)c3cccc(C(F)(F)F)c3)nc3cc(COC)ccc32)c1` [Example 5-1, N-[5-(methoxymethyl)-1-[3-(prop-2-enamido)phenyl]-1H-1,3-benzodiazol-2-yl]-3-(trifluoromethyl)benzamide]: the IC50 at EGFR(L858R/T790M) [1] (setting [3]) was under 0.001 µM; on EGFR(L858R/T790M) [1] (setting [4]), 0.022 µM; on EGFR(L858R/T790M) [2], 0.02 µM; against EGFR (L858R), 0.86 µM; on EGFR (WT) it was over 10 µM.
In the case of `C=CC(=O)Nc1cccc(-n2c(NC(=O)c3cccc(C(F)(F)F)c3)nc3cc(CN4CCOCC4)ccc32)c1` [Example 5-3, N-[5-(morpholin-4-ylmethyl)-1-[3-(prop-2-enamido)phenyl]-1H-1,3-benzodiazol-2-yl]-3-(trifluoromethyl)benzamide], the IC50 is 0.003 µM against EGFR(L858R/T790M) [1] (setting [3]); 0.072 µM at EGFR(L858R/T790M) [1] (setting [4]); 0.026 µM at EGFR(L858R/T790M) [2]; 0.25 µM against EGFR (L858R); over 10 µM against EGFR (WT).
With `C=CC(=O)Nc1cccc(-n2c(NC(=O)c3ccc(F)cc3)nc3cc(C)ccc32)c1` [Example 1, N-(1-(3-acrylamidophenyl)-5-methyl-1H-benzo[d]imidazol-2-yl)-4-fluorobenzamide], the IC50 against EGFR(L858R/T790M) [1] (setting [3]) is 0.002 µM; at EGFR(L858R/T790M) [1] (setting [4]) it was 0.016 µM; on EGFR(L858R/T790M) [2], 0.037 µM; at EGFR (L858R), 0.053 µM; against EGFR (WT), over 10 µM.
Consider `C=CC(=O)Nc1cccc(-n2c(NC(=O)c3cccc(C(F)(F)F)c3)nc3cc(CO)ccc32)c1` [Example 3, N-(1-(3-acrylamidophenyl)-5-(hydroxymethyl)-1H-benzo[d]imidazol-2-yl)-3-(trifluoromethyl)benzamide], for which the IC50 is 0.003 µM at EGFR(L858R/T790M) [1] (setting [3]); 0.028 µM at EGFR(L858R/T790M) [1] (setting [4]); 0.036 µM against EGFR(L858R/T790M) [2]; 0.45 µM against EGFR (L858R); over 10 µM against EGFR (WT).
For the molecule `C=CC(=O)Nc1cccc(-n2c(NC(=O)c3cccc(-c4ccccc4)c3)nc3cc(C)ccc32)c1` [Example 2-7, N-{5-methyl-1-[3-(prop-2-enamido)phenyl]-1H-1,3-benzodiazol-2-yl}-3-phenylbenzamide], the IC50 is under 0.001 µM against EGFR(L858R/T790M) [1] (setting [3]); 0.006 µM at EGFR(L858R/T790M) [1] (setting [4]); 0.007 µM against EGFR(L858R/T790M) [2]; 0.023 µM at EGFR (L858R); over 10 µM on EGFR (WT).
On to `C=CC(=O)N[C@@H]1CCC[C@H](n2c(NC(=O)c3cccc(C(F)(F)F)c3)nc3cccc(C)c32)C1` (racemic) [Example 7, cis-N-(1-(3-acrylamidocyclohexyl)-7-methyl-1H-benzo[d]imidazol-2-yl)-3-(trifluoromethyl)benzamide], for which the IC50 against EGFR(L858R/T790M) [1] (setting [3]) was 0.002 µM; at EGFR(L858R/T790M) [1] (setting [4]) it was 0.039 µM; against EGFR(L858R/T790M) [2], 0.037 µM; at EGFR (L858R), 0.28 µM; at EGFR (WT), over 10 µM.
